Reference: PubChem BioAssay AID344 (DTP/NCI, 2004)
Inconclusive results and toxic doses are left out. How the source made its calls: active means survival T/C of 150% or more; inactive means T/C below 125% in these data.

Test system: mice, LPC-1 plasma cell tumor ip, median survival T/C
Test: NCI In Vivo Anticancer Drug Screen. Data for tumor model Lieberman Plasma Cell No. 1 (LPC-1) (intraperitoneal) in unknown mice
Settings: endpoint: median survival time, schedule: Q01DX028 (sc), higher = longer survival
Method: The antitumor activity of compounds was measured in mice bearing transplantable tumors. Survival or tumor size were measured and the results are expressed as the measurement made in the treated group (T) divided by the measurement made in the vehicle treated control group (C). The tumor model used in this assay is Lieberman Plasma Cell No. 1 (LPC-1) (intraperitoneal) in unknown mice

Measured: T/C

C[C@]12C=CC(=O)C=C1CC[C@@H]1[C@@H]2C(=O)C[C@@]2(C)[C@H]1CC[C@]2(O)C(=O)CO
inactive: dose: 16.0 mg/kg/injection, vehicle: water 86 % of control | dose: 32.0 mg/kg/injection, vehicle: water 86 % of control | dose: 50.0 mg/kg/injection, vehicle: water 105 % of control | dose: 128.0 mg/kg/injection, vehicle: water 91 % of control | dose: 200.0 mg/kg/injection, vehicle: water 92 % of control

CC(=O)[C@H]1CC[C@H]2[C@@H]3C[C@H](C)C4=CC(=O)CC[C@]4(C)[C@H]3C(=O)C[C@]12C
inactive: dose: 108.0 mg/kg/injection, vehicle: carboxymethylcellulose (CMC) 102 % of control | dose: 180.0 mg/kg/injection, vehicle: carboxymethylcellulose (CMC) 100 % of control | dose: 300.0 mg/kg/injection, vehicle: carboxymethylcellulose (CMC) 97 % of control | dose: 500.0 mg/kg/injection, vehicle: carboxymethylcellulose (CMC) 97 % of control

C/C(=N\N=C(N)N)c1ccc(NC(=O)Nc2ccc(/C(C)=N/N=C(N)N)cc2)cc1
inactive: dose: 10.0 mg/kg/injection, vehicle: carboxymethylcellulose (CMC) 94 % of control | dose: 20.0 mg/kg/injection, vehicle: carboxymethylcellulose (CMC) 102 % of control | dose: 40.0 mg/kg/injection, vehicle: carboxymethylcellulose (CMC) 105 % of control | dose: 80.0 mg/kg/injection, vehicle: carboxymethylcellulose (CMC) 100 % of control
